In patent publication US20080312287A1, “Compound and Methods For the Treatment of Cancer and Malaria” (University of Washington, priority 2005, published 2008):
Like-named read-outs stand apart in the source and are kept apart here. Marks after values point to notes of the source that are not given here.

Assays:
[1] = system: P. falciparum 3D7; assay: P. falciparum ED50 determination, [3H]-hypoxanthine incorporation, strain 3D7; format: cell-based, Plasmodium falciparum; settings: Plasmodium falciparum, 3D7, strain 3D7; concentration decreasing hypoxanthine incorporation into parasites twofold; read-out: ED50 3D7
Summary of the method: (§1)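 Cultures at 0.5% parasitemia and 0.5% hematocrit, in RPMI with 20% human A+ plasma, were exposed to compound for 48 h at 37° C under 5% CO2/5% O2. [3H]-hypoxanthine was then added for 24 h more. Incorporation, corrected for uninfected erythrocytes and normalised to DMSO wells, gave ED50 by linear regression.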

[2] = molecular target: Rat FTase (Rattus norvegicus, UniProt Q02293+Q04631); assay: Rat farnesyltransferase IC50 determination; format: biochemical; settings: concentration decreasing transferase activity twofold
[3] = molecular target: T1, PfPFT (Plasmodium falciparum, UniProt Q8I503+Q8IHP6); assay: PfPFT inhibition, scintillation proximity assay with partially purified PfPFT; format: biochemical; settings: for Selectivity: ratio of rat to Plasmodium PFT activity; for inhibition at 0.005 µM: read-out: % Inhibition of PfPFT at 5 nM, inhibitor at 5 nM; for inhibition at 0.05 µM: read-out: % Inhibition of PfPFT at 50 nM, inhibitor at 50 nM
T1 sequence (Q8I503 1-521): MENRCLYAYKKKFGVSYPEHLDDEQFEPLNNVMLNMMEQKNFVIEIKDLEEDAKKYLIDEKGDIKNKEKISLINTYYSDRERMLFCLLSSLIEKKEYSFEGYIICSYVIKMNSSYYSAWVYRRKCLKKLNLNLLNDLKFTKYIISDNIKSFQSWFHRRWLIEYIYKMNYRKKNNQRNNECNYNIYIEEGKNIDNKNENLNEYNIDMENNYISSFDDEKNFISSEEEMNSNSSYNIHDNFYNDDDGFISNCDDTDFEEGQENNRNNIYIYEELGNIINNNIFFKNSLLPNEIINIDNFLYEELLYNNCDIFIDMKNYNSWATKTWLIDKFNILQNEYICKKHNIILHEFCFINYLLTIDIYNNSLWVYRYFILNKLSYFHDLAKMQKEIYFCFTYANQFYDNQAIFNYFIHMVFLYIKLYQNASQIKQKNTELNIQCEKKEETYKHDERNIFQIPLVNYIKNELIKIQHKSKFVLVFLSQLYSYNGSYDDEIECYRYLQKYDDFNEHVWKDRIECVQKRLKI
T1 sequence (Q8IHP6 1-923): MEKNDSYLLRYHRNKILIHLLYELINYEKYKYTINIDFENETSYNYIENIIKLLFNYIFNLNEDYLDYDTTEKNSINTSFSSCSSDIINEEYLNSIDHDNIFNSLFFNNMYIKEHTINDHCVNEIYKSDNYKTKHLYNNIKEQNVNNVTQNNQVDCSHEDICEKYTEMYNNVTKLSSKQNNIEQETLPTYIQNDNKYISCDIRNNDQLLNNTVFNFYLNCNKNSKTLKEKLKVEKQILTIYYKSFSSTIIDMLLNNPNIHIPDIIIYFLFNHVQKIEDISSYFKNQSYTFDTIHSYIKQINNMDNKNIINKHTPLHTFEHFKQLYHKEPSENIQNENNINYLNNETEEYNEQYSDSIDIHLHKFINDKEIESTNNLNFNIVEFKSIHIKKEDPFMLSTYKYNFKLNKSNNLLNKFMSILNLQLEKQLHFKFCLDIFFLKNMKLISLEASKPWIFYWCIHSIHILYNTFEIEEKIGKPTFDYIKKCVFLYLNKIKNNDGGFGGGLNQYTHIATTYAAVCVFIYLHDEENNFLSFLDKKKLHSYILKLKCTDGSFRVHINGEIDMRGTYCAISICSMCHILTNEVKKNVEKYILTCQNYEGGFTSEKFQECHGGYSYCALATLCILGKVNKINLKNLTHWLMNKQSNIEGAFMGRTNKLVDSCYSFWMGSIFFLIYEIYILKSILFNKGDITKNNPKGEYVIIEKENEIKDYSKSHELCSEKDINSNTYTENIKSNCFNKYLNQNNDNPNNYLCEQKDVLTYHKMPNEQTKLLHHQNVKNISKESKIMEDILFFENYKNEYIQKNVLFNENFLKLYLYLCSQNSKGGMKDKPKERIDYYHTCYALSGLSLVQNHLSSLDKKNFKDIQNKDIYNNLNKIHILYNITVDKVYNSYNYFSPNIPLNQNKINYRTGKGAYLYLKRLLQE

[4] = Liver microsome metabolism (mouse); settings: female
Description: (§2) Microsome metabolism. Liver microsome metabolism assays were performed with female pooled microsomes from BD Biosciences (20 mg/mL). Reaction wells containing: phosphate buffer (232 μL, 0.6 M), MgCl2 (12.0 μL, 0.1 M), EDTA (0.8 μL, 0.5 M), 10x NADPH regenerating system (40.0 μL), Glucoide-6-phosphate deghydrogenase (0.8 μL, 500 U/mL), milliq water (267.8 μL), and liver microsomes (10.0 μL, 20 mg/mL) were heated at 37° C. for 10 mins. To each reaction well was added inhibitor (200 μM, 2.0 μL) in DMSO. Reaction vessels were quenched with acetonitrile (75 μL) and internal standard at designated time points, and the sample immediately frozen (−20° C.). Metabolites and unreacted inhibitor were quantified by mass spectral analysis.

[5] = system: P. falciparum K1; assay: P. falciparum ED50 determination, [3H]-hypoxanthine incorporation, strain K1; format: cell-based, Plasmodium falciparum; settings: concentration decreasing hypoxanthine incorporation into parasites twofold, read-out: ED50 K1
Summary of the method: as §1

[6] = Oral availability in rats, inhibitor concentration in plasma; format: in vivo; settings: rat
[7] = Oral availability in mice, inhibitor concentration in plasma; format: in vivo
[8] = Liver microsome metabolism (rat); settings: female, microsomes
Description: as §2

[9] = system: Caco-2 cells; assay: Caco-2 apparent permeability; settings: apparent permeability coefficient
Description: Absorption. Caco-2 cells cultured on a semi-permeable membrane form a highly functionalized epithelial barrier, with remarkable similarity to small intestinal epithelial cells, including high levels of brush border hydrolases and well developed junctional complexes.

[10] = Plasmodium falciparum, K1, strain K1

SMILES | EC50 [1] [nM] | IC50 [2] [nM] | Selectivity [3] | inhibition at 0.005 µM [3] [%] | inhibition at 0.05 µM [3] [%] | half-life at 0.71 µM ([4]; liver microsomes, Microsome t1/2, Mouse, mouse liver microsomes) [min] | EC50 [5, 10] [nM] | half-life at 0.71 µM ([4]; microsomes) [min] | half-life ([6]; plasma, 12.5 mg, oral gavage, rats, elimination half life, read-out: Oral Availability t1/2 (rats)) [min] | Tmax ([6]; plasma, oral administration to rats 12.5 mg) [min] | Cmax ([6]; plasma, oral gavage, rats 12.5 mg in 90% saline, 3% ethanol, 7% tween) [nM] | EC50 ([5]; strain K1) [nM] | Oral Availability in Mice AUC ([7]; mouse, in vivo, po, 1 mg) [µM·min] | Oral Availability in Mice t1/2 ([7]; oral gavage, mice 1 mg, elimination half life) [min] | half-life at 0.71 µM [8] [min] | CaCo [9] [cm · s^−1 × 10^−6] | Oral Availability AUC (^d, rats) ([6]; in vivo, po) | Tmax ([7]; mouse, in vivo, po) [min] | Cmax ([7]; mouse, in vivo, po, 1 mg) [nM]
Cn1cnc(S(=O)(=O)N(CCN(Cc2cncn2C)c2ccc(C#N)cc2)Cc2ccc(-c3ccccc3)cc2)c1 [Compound 8ag, 1-Methyl-1H-imidazole-4-sulfonic acid biphenyl-4-ylmethyl-{2-[(4-cyano-phenyl)-(3-methyl-3H-imidazol-4-ylmethyl)-amino]-ethyl}-amide] | 700 | 880 | 3.7 | 10 | 19 | < 4 | 2500 |  |  |  |  |  |  |  |  |  |  |  | 
Cn1cnc(S(=O)(=O)N(CCN(Cc2cncn2C)c2ccc(C#N)cc2)Cc2ccccc2)c1 [Compound 8d, 1-Methyl-1H-imidazole-4-sulfonic acid benzyl-{2-[(4-cyano-phenyl)-(3-methyl-3H-imidazol-4-ylmethyl)-amino]-ethyl}-amide] | 349 | 25 |  | 86 | 98 |  | 375 | 9 | 96 | 30 | 740 | 367 | 112.0 | 95.9 | 18 |  |  |  | 
Cn1cnc(S(=O)(=O)N(CCN(Cc2cncn2C)c2ccc(C#N)cc2)CC2CCCCC2)c1 [Compound 8q, 1-Methyl-1H-imidazole-4-sulfonic acid {2-[(4-cyano-phenyl)-(3-methyl-3H-imidazol-4-ylmethyl)-amino]-ethyl}-cyclohexylmethyl-amide] | 220 | 7.5 | 1.7 | 63 | 93 |  | 850 | < 5 |  |  |  |  |  |  | 4 | 1.5 |  |  | 
Cc1ccccc1CN(CCN(Cc1cncn1C)c1ccc(C#N)cc1)S(=O)(=O)c1cn(C)cn1 [Compound 8x, 1-Methyl-1H-imidazole-4-sulfonic acid {2-[(4-cyano-phenyl)-(3-methyl-3H-imidazol-4-ylmethyl)-amino]-ethyl}-(2-methyl-benzyl)-amide] | 93 | 15.5 |  | 95 | 99 |  | 150 |  |  |  |  |  |  |  |  |  | 103^d μM · min | 40 | 1050
